Results reported in ChEMBL document CHEMBL2203064, “Inhibitors of the acetyltransferase domain of N-acetylglucosamine-1-phosphate-uridylyltransferase/glucosamine-1-phosphate-acetyltransferase (GlmU). Part 2: Optimization of physical properties leading to antibacterial aryl sulfonamides” (Bioorg Med Chem Lett, 2012).
In brackets after ≈: the same amount, converted by molar mass. Activity calls are given as the source filed them. The rule behind the calls is not given here.

Key:
[1] = physchem; conditions: buffer, pH 7.4
Description: Lipophilicity, log D of the compound at pH 7.4

[2] = Inhibition of Escherichia coli GlmU
[3] = Inhibition of Haemophilus influenzae GlmU
[4] = Inhibition of Streptococcus pneumoniae GlmU
[5] = tested on: Haemophilus influenzae; test: Antibacterial activity against acrB efflux-pump deficient mutant of Haemophilus influenzae; format: functional
[6] = tested on: Haemophilus influenzae; test: Antibacterial activity against acrB efflux-pump deficient mutant of Haemophilus influenzae assessed as inhibition of lipid biosynthesis; format: functional, organism-based
[7] = tested on: Haemophilus influenzae; test: Antibacterial activity against acrB efflux-pump deficient mutant of Haemophilus influenzae assessed as inhibition of radio-labeled biosynthetic precursor incorporation; format: functional, organism-based
[8] = tested on: Haemophilus influenzae; test: Antibacterial activity against acrB efflux-pump deficient mutant of Haemophilus influenzae assessed as inhibition of cell-wall biosynthesis; format: functional, organism-based

SMILES | logD [1] | IC50 [2] [nM] | IC50 [3] [nM] | IC50 [4] [nM] | MIC [5] [µg/mL] | inhibition [6] | inhibition [7] | inhibition [8]
COc1cc(OC)c(S(=O)(=O)N2c3ccccc3Oc3ccccc32)cc1NC(=O)Cc1ccnc(F)c1 | 3.37 | 90 | 30 | 9900 | > 128 |  |  | 
COc1cc(O)c(S(=O)(=O)N2c3ccccc3CCC2C)cc1NC(=O)CCC(=O)O (stereo unspecified) | -0.27 | 50 | 280 | 46600 | 32 (≈ 71.3 µM) | Active | Active | Active
COc1cc(OC)c(S(=O)(=O)N(c2ccc(C)cc2)c2ccc(C)cc2)cc1NC(=O)CCC(=O)O |  | 40 | 320 | 48000 | 32 (≈ 62.4 µM) |  |  | 
COc1cc(OC)c(S(=O)(=O)N2Cc3ccccc3Oc3ccccc32)cc1NC(=O)CCC(=O)O |  | 30 | 80 | 55000 | 32 (≈ 62.4 µM) |  |  | 
COc1cc(OC)c(S(=O)(=O)N(c2ccccc2)c2ccc(N)cc2)cc1NC(=O)CCC(=O)O |  | 20 | 400 | 40200 | > 64 |  |  | 
COc1cc(OC)c(S(=O)(=O)N2c3ccccc3CCC2C)cc1NC(=O)[C@@H]1C(C)[C@H]1C(=O)O (mixture of isomers) | -0.39 | 400 | 510 | 5900 | 128 |  |  | 
COc1cc(OC)c(S(=O)(=O)N2c3ccccc3CCC2C)cc1NC(=O)Cc1ccnc(C#N)c1 (stereo unspecified) |  | 680 | 670 | 10000 | > 128 |  |  | 
COc1cc(OC)c(S(=O)(=O)N2c3ccccc3CCC2C)cc1NC(=O)Cc1ccnc(F)c1 (stereo unspecified) | 2.49 | 800 | 520 | 9000 | > 128 |  |  | 
COc1cc(O)c(S(=O)(=O)N2c3ccccc3CCC2C)cc1NC(=O)[C@@H]1C(C)[C@H]1C(=O)O (relative stereo) |  | < 480 | 380 | 7840 | 128 (≈ 270 µM) |  |  | 
COc1cc(OC)c(S(=O)(=O)N2c3ccccc3Oc3ccccc32)cc1NC(=O)Cc1ccncc1 |  | 60 | 30 | 32000 | 64 (≈ 124 µM) |  |  | 
COc1cc(OC)c(S(=O)(=O)N2c3ccccc3Oc3ccccc32)cc1NC(=O)/C=C/C(=O)O | -0.71 | 10 | 20 | 21500 | 64 (≈ 129 µM) |  |  | 
COc1cc(O)c(S(=O)(=O)N2c3ccccc3Oc3ccccc32)cc1NC(=O)[C@@H]1C(C)[C@H]1C(=O)O (relative stereo) |  | 60 | 30 | 30300 | 32 (≈ 62.7 µM) |  |  | 
COc1cc(OC)c(S(=O)(=O)N2c3ccccc3Sc3ccccc32)cc1NC(=O)CCC(=O)O | -0.31 | 90 | 370 | 36900 | > 64 |  |  | 
COc1cc(OC)c(S(=O)(=O)N2c3ccccc3Oc3ccccc32)cc1NC(=O)CCC(=O)O |  | 10 | 20 | 14600 | 32 (≈ 64.2 µM) | Active | Active | Active
COc1cc(OC)c(S(=O)(=O)N(c2ccccc2)c2ccc3ccccc3c2)cc1NC(=O)CCC(=O)O |  | 40 | 830 | 8400 | 32 (≈ 59.9 µM) |  |  | 
COc1cc(OC)c(S(=O)(=O)N2c3ccccc3Oc3ccccc32)cc1NC(=O)[C@@H]1C(C)[C@H]1C(=O)O (mixture of isomers) | 0.06 | 30 | 10 | 5300 | 32 |  |  | 
COc1cc(OC)c(S(=O)(=O)N2c3ccccc3CCC2C)cc1NC(=O)CCc1nn[nH]n1 (stereo unspecified) | -0.34 | 430 | 600 | 24700 | > 64 |  |  | 
COc1cc(OC)c(S(=O)(=O)N(c2ccccc2)c2ccccc2)cc1NC(=O)CCC(=O)O |  | 40 | 910 | 25500 | > 64 |  |  | 
